Assay: dissolution of ondansetron in hydroalcoholic solution
Format: physicochemical
Settings: approximately 50° ethanol
Description: By way of example, the coefficient of dissolution of ondansetron in ethanol allows complete dissolution of said active ingredient at the rate of 2 milligrams (mg) of ondansetron per 0.75 milliliters (mL) of approximately 50° ethanol. This coefficient may be modulated as a function of the degree of alcohol and the water/ethanol ratio used.

Compound: Cc1nccn1CC1CCc2c(c3ccccc3n2C)C1=O (stereo not shown) [ondansetron]
- coefficient of dissolution (complete dissolution): 2 mg per 0.75 mL

Source: patent US20110251233A1, “FORMULATION FOR THE BUCCAL TRANSMUCOSAL ADMINISTRATION OF SETRONS” (priority 2008, published 2011)
